This note sets out measurements from US20170334899A1, “AMINO-SUBSTITUTED ISOTHIAZOLES” (Bayer Pharma Aktiengesellschaft, priority 2014, published 2017).

Each structure is given as a SMILES string.

For one test, the target named is T1, CDK2/CycE (Homo sapiens, UniProt P24941).
T1 construct: GST; purchased ProQinase GmbH (Freiburg, Germany); host or cells: insect cells (Sf9)
Briefly: CDK2/CycE kinase assay (TR-FRET). The test is classed as biochemical. The following applies: avg, read-out: CDK2 avg (IC50 [mol/l]). In a few lines: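 GST-tagged human CDK2 and CycE from Sf9 cells, preincubated 15 min with compound, then 25 min at 22° C. with 10 μM ATP and 0.75 μM biotinylated Rb-derived peptide (final). Phospho-substrate read by TR-FRET (anti-pRB pSer807/pSer811, Eu anti-mouse IgG, streptavidin-XL665), 665/620 nm ratio, normalised to no-inhibitor and no-enzyme controls.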
For orientation: Time-resolved FRET reads energy transfer from a long-lived donor to a nearby acceptor.

A further test relates to HeLa. As to the kind of experiment: Proliferation assay (crystal violet), HeLa. The test is classed as cell-based. The conditions noted are these: Homo sapiens, HeLa, 96 h, HeLa cells; 4 days incubation; crystal violet staining; read-out: IC50 inhibition of proliferation, HeLa. In a few lines: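 Seed 1000–5000 cells/well, 10% FCS; 24 h later replace medium and add compound (0.001–10 μM, 0.5% DMSO); incubate 4 d; glutaraldehyde fix, 0.1% crystal violet pH 3.0, elute with 10% acetic acid; A595; 4-parameter IC50.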

As for `Cc1nsc(Nc2ccc(C#N)cn2)c1C(=O)Nc1ccc(OC2CCNCC2)nc1` [Example 28, 5-[(5-Cyanopyridin-2-yl)amino]-3-methyl-N-[6-(piperidin-4-yloxy)pyridin-3-yl]-1,2-thiazole-4-carboxannide], the results for the IC50 on CDK2/CycE and in the test with HeLa were at least 20 µM and 3700 nM, respectively.
For the molecule `Cc1nsc(Nc2ccc(C#N)cn2)c1C(=O)Nc1ccc(OC2CCN(CCF)CC2)nc1` [Example 29, 5-[(5-Cyanopyridin-2-yl)amino]-N-(6-{[1-(2-fluoroethyl)piperidin-4-yl]oxy}pyridin-3-yl)-3-methyl-1,2-thiazole-4-carboxamide], the IC50 at CDK2/CycE was at least 20 µM; in the test with HeLa, 10000 nM.
With `Cc1nsc(Nc2ccc(C#N)cn2)c1C(=O)Nc1ccc(OC2CCN(CC(F)(F)F)CC2)nc1` [Example 30, 5-[(5-Cyanopyridin-2-yl)amino]-3-methyl-N-(6-{[1-(2,2,2-trifluoroethyl)piperidin-4-yl]oxy}pyridin-3-yl)-1,2-thiazole-4-carboxamide], the values for the IC50 at CDK2/CycE and with HeLa were at least 20 µM and 340 nM, respectively.
The matching figures for `Cc1nsc(Nc2cnc3ccccc3n2)c1C(=O)Nc1ccc(OC2CCCN(C(=O)OC(C)(C)C)C2)nc1` (centres unmarked) [Example 31, tert-Butyl 3-{[5-({[3-methyl-5-(quinoxalin-2-ylamino)-1,2-thiazol-4-yl]carbonyl}-amino)pyridin-2-yl]oxy}piperidine-1-carboxylate]: at least 20 µM and 1200 nM.
The matching figures for `Cc1nsc(Nc2cnc3ccccc3n2)c1C(=O)Nc1ccc(OC2CCCNC2)nc1` (centres unmarked) [Example 32, 3-Methyl-N-[6-(piperidin-3-yloxy)pyridin-3-yl]-5-(quinoxalin-2-ylamino)-1,2-thiazole-4-carboxannide]: at least 20 µM and 8000 nM.
In the case of `Cc1nsc(Nc2cnc3ccccc3n2)c1C(=O)Nc1ccc(OC2CCCN(CC(F)F)C2)nc1` (centres unmarked) [Example 33, N-(6-{[1-(2,2-Difluoroethyl)piperidin-3-yl]oxy}pyridin-3-yl)-3-methyl-5-(quinoxalin-2-ylamino)-1,2-thiazole-4-carboxamide], the IC50 at CDK2/CycE is at least 20 µM; in the test with HeLa, 2400 nM.
The matching figures for `Cc1nsc(Nc2cc(C#N)ccn2)c1C(=O)Nc1ccc(OC2CCCN(C(=O)OC(C)(C)C)C2)nc1` (centres unmarked) [Example 34, tert-Butyl 3({5-[({5-[(4-cyanopyridin-2-yl)amino]-3-methyl-1,2-thiazol-4-yl}-carbonyl)amino]pyridin-2-yl}oxy)piperidine-1-carboxylate]: at least 20 µM and 3100 nM.
`Cc1nsc(Nc2cnc(C(F)(F)F)cn2)c1C(=O)Nc1ccc(OCCNCCC(F)(F)F)nc1` [Example 323, 3-methyl-5-{[5-(trifluoromethyl)pyrazin-2-yl]amino}-N-(6-{2-[(3,3,3-trifluoropropyl)amino]ethoxy}pyridin-3-yl)-1,2-thiazole-4-carboxamide]: the IC50 is at least 20 µM on CDK2/CycE and 950 nM in the test on HeLa.
On to `Cc1nsc(Nc2cnc(C(F)(F)F)cn2)c1C(=O)Nc1ccc(OC2CCN(C(CF)CF)CC2)nc1` [Example 324, N-(6-{[1-(1,3-difluoropropan-2-yl)piperidin-4-yl]oxy}pyridin-3-yl)-3-methyl-5-{[5-(trifluoromethyl)pyrazin-2-yl]amino}-1,2-thiazole-4-carboxamide], for which the IC50 is at least 20 µM on CDK2/CycE and 870 nM with HeLa.
The matching figures for `Cc1nsc(Nc2cnc(C(F)(F)F)cn2)c1C(=O)Nc1ccc(OCC2CCCN(CCF)C2)nc1` (centres unmarked) [Example 325, N-(6-{[1-(2-fluoroethyl)piperidin-3-yl]methoxy}pyridin-3-yl)-3-methyl-5-{[5-(trifluoromethyl)pyrazin-2-yl]amino}-1,2-thiazole-4-carboxamide]: at least 20 µM and 620 nM.
